Measured values as given in patent US4489091A, “Antilipemic and anti-inflammatory compositions containing sulfonate derivatives” (Taiho Pharmaceutical Company Limited, priority 1980, dated 1984).

Columns and labels:
[1] = molecular target: chymotripsin (Bos taurus, UniProt P00766); assay: Chymotripsin inhibiting activity; type: biochemical; conditions: 0.5 h; compound 1×10^-4 mole, ATEE substrate, pH 8.0, 37° C.; read-out: Percent chymotripsin inhibition
Experimental: Chymotripsin (0.1 unit) serving as an enzyme solution is added to a specified quantity of buffer solution containing 0.1 mole of trishydrochloric acid (pH 8.0). To the mixture is further added a 50% ethanol solution of the compound of the invention so that the resulting mixture contains the compound in a concentration of 1×10^-4 mole. The mixture is reacted at 37° C. for 20 minutes.
On completion of the reaction, 10 micromoles of N-acetyl-L-thyrosine ethyl ester (ATEE) serving as a substrate is added to the mixture, and the resulting mixture is reacted at 37° C. for 30 minutes.
After the completion of the reaction, the amount of remaining ATEE is determined by the same hydroxamic acid method as above. The percent chymotripsin inhibition is given by [formula] wherein A is the amount of hydrolyzed esters in the reaction system not containing the compound of the invention, and B is the amount of hydrolyzed esters in the reaction system containing the present compound.

[2] = molecular target: esterase; assay: Esterase inhibiting activity; type: biochemical; conditions: rat liver microsome esterase, methyl butyrate substrate, pH 8.0, 37° C., 60 minutes; read-out: IC50 for esterases
Experimental: A 10 micromole quantity of methyl butyrate in a 50% ethanol solution is added as a substrate to a specified amount of buffer solution containing 0.1 mole of trishydrochloric acid (pH 8.0). To the mixture is further added a 50% ethanol solution of the compound of the invention, immediately followed by addition of an esterase solution prepared from a purified microsome fraction of the liver of a rat (adjusted to hydrolyze 9 micromoles of methyl butyrate at 37° C. in one hour) as an enzyme solution. The mixture is reacted at 37° C. for 60 minutes.
After the reaction, alkaline hydroxylamine is added to the mixture to form a hydroxamic acid derivative of methyl butyrate, and a ferric salt is added to the derivative. The resulting red color is colorimetrically determined (at a wavelength of 540 nm) to determine the amount of remaining methyl butyrate. The esterase inhibiting ratios of the present compound at least at three concentrations are plotted as ordinate, and the logarithms of the concentrations as abscissa to obtain a line, which gives the 50% inhibition concentration (IC50).

[3] = system: cholesterol; assay: Antilipemic effect: percent total cholesterol inhibition in plasma of rats given an olive oil-cholesterol mixture; type: in vivo, male Wistar rats; conditions: oral 100 mg/kg, plasma 8 hours after dosing, Wistar rat; read-out: Anti-lipemic effect, CS (percent cholesterol inhibition)
How it was run: (§1)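 Male Wistar rats, seven weeks old, 200 to 220 g, 5 per group, dosed orally at 100 or 200 mg/kg in olive oil-cholesterol mixture (15% cholesterol) at 10 ml/kg. Plasma triglycerides measured at 2 hours, total cholesterol at 8 hours, by enzymatic kits; percent inhibition calculated relative to vehicle control and untreated normal groups.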

[4] = Acute toxicity; conditions: rat, in vivo, po
Text: Six-week-old male Wistar rats weighing 180 to 200 g are used, 5 rats in each group. Each compound of the invention is suspended in a 30% aqueous solution of polyethylene glycol 6000 and orally given to the rat at the dosage shown in Table 2. The animals are checked for poisoning, body weight and survival to determine the LD50 value.

[5] = system: triglycerides; assay: Antilipemic effect: percent triglycerides inhibition in plasma of rats given an olive oil-cholesterol mixture; type: in vivo, male Wistar rats; conditions: oral 100 mg/kg, plasma 2 hours after dosing, Wistar rat; read-out: Anti-lipemic effect, TG (percent triglycerides inhibition)
How it was run: as §1

[6] = reported in the literature; cited from earlier work

Row | Compound | inhibition at 100 µM [1] | IC50 [2] | inhibition in vivo at 100 mg/kg [3] | LD50 [4] | inhibition in vivo at 100 mg/kg [5] | Side effects [6]
1 | CCCC(CC)C(=O)COS(=O)(=O)c1c(C)cc(C)cc1C (stereo not drawn) [Compound 151] | 8% | 32000 nM | 77% | > 3000 mg/kg | 83% | 
2 | CCC(C)CC(=O)COS(=O)(=O)c1c(C)cc(C)cc1C (stereo not drawn) [Compound 153] | 9% | 640 nM | 83% | > 4000 mg/kg | 82% | 
3 | CCCC(C)CC(=O)COS(=O)(=O)c1c(C)cc(C)cc1C (stereo not drawn) [Compound 158] | 17% | 400 nM | 70% | > 4000 mg/kg | 74% | 
4 | CCCCCC(C)C(=O)COS(=O)(=O)c1c(C)cc(C)cc1C (stereo not drawn) [Compound 162] | 32% | 2000 nM | 77% | > 4000 mg/kg | 75% | 
5 | O=C(O)c1cccnc1 [nicotinic acid] |  |  |  |  |  | pruritus and cutaneous flushing due to vasodilatation, gastrointestinal disorders, abnormalities in liver function and glucose intolerance
